Data as given in ChEMBL document CHEMBL1909577, “Discovery of 3-hydroxy-4-cyano-isoquinolines as novel, potent, and selective inhibitors of human 11β-hydroxydehydrogenase 1 (11β-HSD1)” (Bioorg Med Chem Lett, 2011).
Converted amounts (≈) assume the structure as drawn.

Experiments:
[1] = molecular target: T1, 11-beta-hydroxysteroid dehydrogenase 1 (Mus musculus, UniProt P50172); assay: Inhibition of mouse 11beta-HSD1
[2] = test system: Liver microsomes; settings: human, 10 min, 300 µM
Description: Metabolic stability of the compound in human liver microsomes assessed as stability rate per mg of protein at 300 uM after 10 mins by LC-MS/MS analysis in presence of NADPH

[3] = test system: Liver; settings: mouse, microsomes, 10 min, 300 µM
Description: Metabolic stability of the compound in mouse liver microsomes assessed as stability rate per mg of protein at 300 uM after 10 mins by LC-MS/MS analysis in presence of NADPH

[4] = test system: Liver microsomes; settings: rat, 10 min, 300 µM
Description: Metabolic stability of the compound in rat liver microsomes assessed as stability rate per mg of protein at 300 uM after 10 mins by LC-MS/MS analysis in presence of NADPH

[5] = Aqueous solubility of the compound; format: physicochemical
[6] = Inhibition of cynomolgus monkey 11beta-HSD1; parameters: species or system Macaca fascicularis
[7] = Cmax in Balb/C mouse at 10 umol/kg, po; format: ADME, organism-based; parameters: dose 10 umol/kg, route oral; settings: in vivo
[8] = Tmax in Balb/C mouse at 10 umol/kg, po; format: ADME, organism-based; settings: in vivo
[9] = AUC (0 to 8 hrs) in Balb/C mouse at 10 umol/kg, po; format: ADME, organism-based; parameters: time < 8 hr, dose 10 umol/kg, route oral; settings: plasma
[10] = test system: UDP-glucuronosyltransferase (Mus musculus); assay: in vitro; settings: human, liver microsomes
[11] = molecular target: T1, 11-beta-hydroxysteroid dehydrogenase 1; assay: Inhibition of 11beta-HSD1 in mouse 3T3L1 cells; format: cell-based, 3T3-L1
[12] = molecular target: T2, 11-beta-hydroxysteroid dehydrogenase 1 (Homo sapiens, UniProt P28845); assay: Inhibition of human 11beta-HSD1 expressed in HEK293 cells assessed as conversion of [3H]-cortisone to [3H]-cortisol by scintillation plate reader; format: cell-based
T2 sequence (P28845 whole entry): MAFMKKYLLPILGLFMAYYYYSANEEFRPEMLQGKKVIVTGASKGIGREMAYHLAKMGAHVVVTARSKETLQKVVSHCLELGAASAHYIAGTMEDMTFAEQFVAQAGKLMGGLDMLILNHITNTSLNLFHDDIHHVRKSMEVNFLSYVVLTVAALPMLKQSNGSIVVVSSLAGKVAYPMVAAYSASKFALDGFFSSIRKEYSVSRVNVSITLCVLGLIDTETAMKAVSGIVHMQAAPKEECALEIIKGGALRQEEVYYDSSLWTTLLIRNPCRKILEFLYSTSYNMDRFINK

[13] = molecular target: T3, 11-beta-hydroxysteroid dehydrogenase type 2 (Homo sapiens, UniProt P80365); assay: Inhibition of 11beta-HSD2
T3 sequence (P80365 whole entry): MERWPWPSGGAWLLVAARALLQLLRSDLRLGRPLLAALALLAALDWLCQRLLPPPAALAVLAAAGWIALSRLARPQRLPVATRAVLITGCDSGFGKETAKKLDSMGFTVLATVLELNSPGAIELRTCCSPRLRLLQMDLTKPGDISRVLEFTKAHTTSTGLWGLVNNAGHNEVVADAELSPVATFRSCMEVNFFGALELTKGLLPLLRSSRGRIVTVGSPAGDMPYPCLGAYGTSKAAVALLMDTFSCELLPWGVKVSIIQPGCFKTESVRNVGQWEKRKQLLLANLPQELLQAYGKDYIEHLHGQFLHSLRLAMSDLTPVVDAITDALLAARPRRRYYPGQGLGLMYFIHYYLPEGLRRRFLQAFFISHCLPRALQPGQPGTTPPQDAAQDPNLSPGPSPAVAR

[14] = molecular target: T2, 11-beta-hydroxysteroid dehydrogenase 1; assay: Inhibition of 11beta-HSD1 in human HEK cells; format: cell-based, HEK293
[15] = test system: 11β-HSD1 (Mus musculus); settings: Homo sapiens

T1 sequence (P50172 whole entry): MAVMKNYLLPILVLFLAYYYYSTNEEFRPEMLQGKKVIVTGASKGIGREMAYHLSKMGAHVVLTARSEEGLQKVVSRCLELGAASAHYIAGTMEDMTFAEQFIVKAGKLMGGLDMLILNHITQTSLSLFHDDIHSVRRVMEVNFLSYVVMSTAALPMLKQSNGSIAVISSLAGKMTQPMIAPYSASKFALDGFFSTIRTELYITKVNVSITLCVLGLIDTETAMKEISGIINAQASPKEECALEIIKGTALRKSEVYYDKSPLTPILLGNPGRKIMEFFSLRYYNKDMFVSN

| Structure (SMILES) | IC50 [1] [nM] | Stability [2] | Stability [3] | Stability [4] | solubility [5] [µg/mL] | further results |
| --- | --- | --- | --- | --- | --- | --- |
| N#Cc1c(=O)[nH]c(SCc2ccccc2Cl)c2ccc(F)cc12 | 14 | 0.12 nmol/min | 0.1 nmol/min | 0.05 nmol/min | – | – |
| N#Cc1ccccc1CSc1nc(O)c(C#N)c2c1CCCC2 | 6 | 0.15 nmol/min | 0.23 nmol/min | 0.25 nmol/min | 7 (≈ 21.8 µM) | – |
| N#Cc1c2c(c(-c3ccccc3)[nH]c1=O)CCCC2 | 4350 | – | – | – | – | – |
| N#Cc1c(O)nc(SCc2ccccc2Cl)c2cccc(F)c12 | 7 | 0.24 nmol/min | 0.08 nmol/min | 0.13 nmol/min | – | – |
| N#Cc1c(O)nc(SCC2CCC2)c2c1CCCC2 | 33 | 0 nmol/min | 0.16 nmol/min | 0.24 nmol/min | – | – |
| N#Cc1c(O)nc(SCc2ccccc2Cl)c2c1CCN(Cc1ccccc1)C2 | 4350 | 0.08 nmol/min | 0.04 nmol/min | 0 nmol/min | – | – |
| N#Cc1c(O)nc(SCc2ccccc2Cl)c2ccccc12 | 19 | 0.17 nmol/min | 0.2 nmol/min | 0.23 nmol/min | 1 (≈ 3.06 µM) | – |
| N#Cc1c(O)nc(SCc2ccccc2Cl)c2c1CCCC2 | – | 0.09 nmol/min | 0.17 nmol/min | 0.16 nmol/min | 6 (≈ 18.1 µM) | IC50 [6]: 1 nM; Cmax [7]: 30 nM; Tmax [8]: 1 h; AUC(0-t) at 8 h [9]: 0.2 µM·h; half-life [10]: < 1 min |
| N#Cc1c(=O)[nH]c(OCc2ccccc2Cl)c2cc(F)ccc12 | 21 | 0.05 nmol/min | 0.02 nmol/min | 0.04 nmol/min | 2 (≈ 6.08 µM) | Cmax [7]: 2300 nM; Tmax [8]: 4 h; AUC(0-t) at 8 h [9]: 12 µM·h; IC50 [11]: 2160 nM |
| N#Cc1c(O)nc(SCc2ccccc2)c2c1-c1ccccc1CC2 | 50 | 0.04 nmol/min | 0 nmol/min | 0.07 nmol/min | – | IC50 [12]: 5 nM; IC50 [13]: 386 nM |
| N#Cc1c(O)nc(SCc2ccccc2-c2ccccc2)c2c1CCCC2 | 145 | – | – | – | – | – |
| N#Cc1c(O)nc(Sc2ccccc2Cl)c2c1CCCC2 | 95 | 0.07 nmol/min | 0.17 nmol/min | 0.15 nmol/min | 1 (≈ 3.16 µM) | – |
| N#Cc1c(O)nc(SCc2ccccc2Cl)nc1-c1ccccc1 | 58 | – | – | – | – | IC50 [12]: 27 nM; IC50 [6]: 53 nM; Cmax [7]: 7100 nM; Tmax [8]: 1 h; AUC(0-t) at 8 h [9]: 37 µM·h; IC50 [14]: 1100 nM; IC50 [11]: 2850 nM; IC50 [15]: 58 nM; half-life [10]: > 200 min |
| N#Cc1c2c(c(SCc3c(Cl)cccc3Cl)[nH]c1=O)CCCC2 | 3 | 0 nmol/min | 0 nmol/min | Unstable | 1 (≈ 2.74 µM) | – |
| N#Cc1c(O)nc(SCc2ccccc2)c2c1CCCC2 | 16 | – | – | – | – | – |
| N#Cc1c(O)nc(SCc2cccc(Cl)c2)c2c1CCCC2 | 39 | – | – | – | 1 (≈ 3.02 µM) | – |
| N#Cc1c(O)nc(S(=O)(=O)Cc2ccccc2Cl)c2c1CCCC2 | 267 | 0.07 nmol/min | 0.12 nmol/min | 0.14 nmol/min | – | – |

| Structure (SMILES) | IC50 [1] [nM] | Stability [2] | Stability [3] | Stability [4] | solubility [5] [µg/mL] | further results |
| --- | --- | --- | --- | --- | --- | --- |
| Oc1cc2c(c(SCc3ccccc3Cl)n1)CCCC2 | 9250 | 0.27 nmol/min | 0.3 nmol/min | 0.3 nmol/min | – | – |
| N#Cc1c(=O)[nH]c(SCc2ccccc2Cl)c2c(F)cccc12 | 10 | 0.12 nmol/min | 0.08 nmol/min | 0.05 nmol/min | – | – |
| N#Cc1ncccc1CSc1nc(O)c(C#N)c2ccc(F)cc12 | 24 | 0 nmol/min | 0.02 nmol/min | 0.02 nmol/min | 3 (≈ 8.92 µM) | – |
| N#Cc1ccc(-c2c(O)nc(SCc3ccccc3Cl)c3c2CCCC3)cc1 | 3830 | 0.19 nmol/min | 0.18 nmol/min | 0.3 nmol/min | 1 (≈ 2.46 µM) | – |
| COc1ccccc1CSc1nc(O)c(C#N)c2c1CCCC2 | 9 | – | – | – | – | – |
| N#Cc1c(O)nc(OCc2ccccc2Cl)c2c1CCCC2 | 6 | Unstable | Unstable | Unstable | 1 (≈ 3.18 µM) | – |
| Oc1nc(SCc2ccccc2Cl)c2c(c1Br)CCCC2 | 2270 | – | – | – | – | – |
| N#Cc1c(O)nc(SCc2ccccc2Cl)c2c1CCOC2 | 21 | 0.12 nmol/min | 0.07 nmol/min | 0.04 nmol/min | 8 (≈ 24 µM) | – |
| N#Cc1c(O)nc(SCCc2ccccc2Cl)c2c1CCCC2 | 6 | 0.18 nmol/min | 0.27 nmol/min | 0.24 nmol/min | 1 (≈ 2.9 µM) | – |
| N#Cc1c(O)nc(SCc2ccccc2Cl)c2cc(F)ccc12 | 7 | 0.09 nmol/min | 0 nmol/min | 0.04 nmol/min | 1 (≈ 2.9 µM) | Cmax [7]: 2900 nM; Tmax [8]: 4 h; AUC(0-t) at 8 h [9]: 15 µM·h; IC50 [11]: 2250 nM |
| N#Cc1ccc(F)c(CSc2nc(O)c(C#N)c3c2CCCC3)c1 | 9 | 0.03 nmol/min | 0.12 nmol/min | Unstable | – | – |
| CS(=O)(=O)c1ccccc1CSc1nc(O)c(C#N)c2c1CCCC2 | 10 | 0 nmol/min | 0.11 nmol/min | 0.19 nmol/min | 32 (≈ 85.5 µM) | – |
| N#Cc1ncccc1CSc1nc(O)c(C#N)c2c1COCC2 | 105 | 0 nmol/min | 0.01 nmol/min | 0 nmol/min | 238 (≈ 734 µM) | Cmax [7]: 500 nM; Tmax [8]: 4 h; AUC(0-t) at 8 h [9]: 2.9 µM·h; IC50 [11]: 3970 nM; half-life [10]: 3 min |
| N#Cc1ncccc1CSc1nc(O)c(C#N)c2c1CCCC2 | 10 | 0.04 nmol/min | 0.05 nmol/min | 0.05 nmol/min | 38 (≈ 118 µM) | – |
| N#Cc1ccc2c(C#N)c(O)nc(SCc3ccccc3Cl)c2c1 | 62 | 0.25 nmol/min | 0.05 nmol/min | 0.04 nmol/min | 8 (≈ 22.7 µM) | – |
| N#Cc1c(O)nc(SCc2ccc(Cl)cc2)c2c1CCCC2 | 25 | 0.09 nmol/min | 0.3 nmol/min | 0.3 nmol/min | 1 (≈ 3.02 µM) | – |
